Measurements reported in patent publication US10544130B2, “Metallo-beta-lactamase inhibitors” (priority 2015, dated 2020).

test system: Pseudomonas aeruginosa PAO1 MB9798 (efflux+, IMP-1); conditions: ratio MITC95 PA 9798/MITC95 PA 9799; imipenem at 2 μg/mL
Summary of the method: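 Isogenic PAO1 pair (efflux+ MB9798, efflux− MB9799, both IMP-1) tested by microbroth MIC with fixed imipenem and/or ceftazidime, usually at CLSI breakpoint, plus fixed class A/C inhibitor against AmpC. MBL inhibitor titrated; concentration restoring susceptibility recorded and fold difference between strains taken as efflux extent.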

| Compound | Efflux ratio |
| --- | --- |
| NC[C@H]1CCN(S(=O)(=O)c2ccc(-c3cccc4sc(N)nc34)c(-c3nnn[nH]3)c2S(N)(=O)=O)C1 [Example 74, 3-(2-amino-1,3-benzothiazol-4-yl)-6-{[(3R)-3-(aminomethyl)pyrrolidin-l-yl]sulfonyl}-2-(1H-tetrazol-5-yl)benzenesulfonamide] | 1.00 |
| NCCNS(=O)(=O)c1ccc(-c2cccc3[nH]cnc23)c(-c2nn[nH]n2)c1S(N)(=O)=O [Example 199, N^1-(2-aminoethyl)-4-(1H-benzo[d]imidazol-4-yl)-3-(2H-tetrazol-5-yl)benzene-1,2-disulfonamide] | 0.55 |
| Nc1ncccc1-c1ccc(S(=O)(=O)NC[C@H]2CNCCN2)c(S(N)(=O)=O)c1-c1nn[nH]n1 [Example 316, (R)-4-(2-aminopyridin-3-yl)-N1-(piperazin-2-ylmethyl)-3-(1H-tetrazol-5-yl)benzene-1,2-disulfonamide] | 2.00 |
| NCCNS(=O)(=O)c1ccc(-c2ccc3ncn(CCN)c3c2)c(-c2nn[nH]n2)c1S(N)(=O)=O [Example 348, N^1-(2-aminoethyl)-4-(1-(2-aminoethyl)-1H-benzo[d]imidazol-6-yl)-3-(2H-tetrazol-5-yl)benzene-1,2-disulfonamide] | 4.00 |
| NS(=O)(=O)c1c(S(=O)(=O)N[C@@H]2CCNC2)ccc(-c2ccc3c(c2)C(=O)NC3)c1-c1nnn[nH]1 [Example 138, (R)-4-(3-oxoisoindolin-5-yl)-N1-(pyrrolidin-3-yl)-3-(1H-tetrazol-5-yl)benzene-1,2-disulfonamide] | 1.00 |
| Nc1ccc2cccc(-c3ccc(S(=O)(=O)N[C@@H]4CNC[C@@H]4N)c(S(N)(=O)=O)c3-c3nn[nH]n3)c2n1 [Example 319, N^1-((3R,4S)-4-aminopyrrolidin-3-yl)-4-(2-aminoquinolin-8-yl)-3-(2H-tetrazol-5-yl)benzene-1,2-disulfonamide] | 1.00 |
| N[C@H](CO)CNS(=O)(=O)c1ccc(-c2cccc3[nH]cnc23)c(-c2nn[nH]n2)c1S(N)(=O)=O [Example 296, (S)—N^1-(2-amino-3-hydroxypropyl)-4-(1H-benzo[d]imidazol-4-yl)-3-(2H-tetrazol-5-yl)benzene-1,2-disulfonamide] | 1.00 |
| NS(=O)(=O)c1ccc(-c2cccc3cn[nH]c23)c(-c2nn[nH]n2)c1S(N)(=O)=O [Example 3, 4-(1H-indazol-7-yl)-3-(2H-tetrazol-5-yl)benzene-1,2-disulfonamide] | 2.00 |
| Nc1ccc(-c2ccc(S(=O)(=O)NC[C@@]3(N)CCNC3)c(S(N)(=O)=O)c2-c2nn[nH]n2)cn1 [Example 369, (R)-4-(6-aminopyridin-3-yl)-N1-((3-aminopyrrolidin-3-yl)methyl)-3-(2H-tetrazol-5-yl)benzene-1,2-disulfonamide] | 1.00 |
| CC(C)(N)CNS(=O)(=O)c1ccc(-c2cccc3sc(N)nc23)c(-c2nnn[nH]2)c1S(N)(=O)=O [Example 87, N^1-(2-amino-2-methylpropyl)-4-(2-aminobenzo[d]thiazol-4-yl)-3-(1H-tetrazol-5-yl)benzene-1,2-disulfonamide] | 0.50 |
| NCCNS(=O)(=O)c1ccc(-c2cccc3cn[nH]c23)c(-c2nn[nH]n2)c1S(N)(=O)=O [Example 9, N^1-(2-aminoethyl)-4-(1H-indazol-7-yl)-3-(2H-tetrazol-5-yl)benzene-1,2-disulfonamide] | 0.50 |
| CN(C)C1CCN(S(=O)(=O)c2ccc(-c3cccc4sc(N)nc34)c(-c3nnn[nH]3)c2S(N)(=O)=O)CC1 [Example 26, 3-(2-amino-1,3-benzothiazol-4-yl)-6-{[4-(dimethylamino)piperidin-1-yl]sulfonyl}-2-(1H-tetrazol-5-yl)benzenesulfonamide] | 2.00 |
| Nc1nc2c(-c3ccc(S(=O)(=O)N[C@]4(CO)CCNC4)c(S(N)(=O)=O)c3-c3nnn[nH]3)cccc2[nH]1 [Example 177, (R)-4-(2-amino-1H-benzo[d]imidazol-4-yl)-N1-(3-(hydroxymethyl)pyrrolidin-3-yl)-3-(1H-tetrazol-5-yl)benzene-1,2-disulfonamide] | 0.50 |
| CC(C)(CN)NS(=O)(=O)c1ccc(-c2cccnc2N)c(-c2nn[nH]n2)c1S(N)(=O)=O [Example 211, N1-(1-amino-2-methylpropan-2-yl)-4-(2-aminopyridin-3-yl)-3-(2H-tetrazol-5-yl)benzene-1,2-disulfonamide] | 4.00 |
| NCCNS(=O)(=O)c1ccc(-c2ccc(N)nc2)c(-c2nn[nH]n2)c1S(N)(=O)=O [Example 196, N^1-(2-aminoethyl)-4-(6-aminopyridin-3-yl)-3-(2H-tetrazol-5-yl)benzene-1,2-disulfonamide] | 1.00 |
| NC(=O)[C@@H](N)CNS(=O)(=O)c1ccc(-c2cccc3[nH]c(N)nc23)c(-c2nn[nH]n2)c1S(N)(=O)=O [Example 189, (2S)-2-amino-3-(4-(2-amino-1H-benzo[d]imidazol-4-yl)-2-sulfamoyl-3-(2H-tetrazol-5-yl)phenylsulfonamido)propanamide] | 0.50 |

| Compound | Efflux ratio |
| --- | --- |
| NS(=O)(=O)c1c(S(=O)(=O)N[C@@H]2CCNC2)ccc(-c2ccc3nonc3c2)c1-c1nnn[nH]1 [Example 133, (R)-4-(benzo[c][1,2,5]oxadiazol-5-yl)-N1-(pyrrolidin-3-yl)-3-(1H-tetrazol-5-yl)benzene-1,2-disulfonamide] | 8.00 |
| Nc1nc2c(-c3ccc(S(=O)(=O)NC[C@@H](N)CO)c(S(N)(=O)=O)c3-c3nn[nH]n3)cccc2[nH]1 [Example 190, 4-(2-amino-1H-benzo[d]imidazol-4-yl)-N1-((R)-2-amino-3-hydroxypropyl)-3-(2H-tetrazol-5-yl)benzene-1,2-disulfonamide] | 0.50 |
| NC[C@@H](N)CNS(=O)(=O)c1ccc(-c2cccc3ccc(N)nc23)c(-c2nn[nH]n2)c1S(N)(=O)=O [Example 376, (R)-4-(2-aminoquinolin-8-yl)-N1-(2,3-diaminopropyl)-3-(2H-tetrazol-5-yl)benzene-1,2-disulfonamide] | 1.00 |
| Nc1ccc(-c2ccc(S(=O)(=O)NC[C@@H](N)CO)c(S(N)(=O)=O)c2-c2nn[nH]n2)cn1 [Example 365, (R)—N1-(2-amino-3-hydroxypropyl)-4-(6-aminopyridin-3-yl)-3-(2H-tetrazol-5-yl) benzene-1,2-disulfonamide] | 2.00 |
| CN(C1CNC1)S(=O)(=O)c1ccc(-c2cccc3sc(N)nc23)c(-c2nnn[nH]2)c1S(N)(=O)=O.O=C(O)C(F)(F)F [Example 105, 3-(4-(2-aminobenzo[d]thiazol-4-yl)-N-methyl-2-sulfamoyl-3-(1H-tetrazol-5-yl)phenylsulfonamido) azetidin-1-ium 2,2,2-trifluoroacetate] | 1.00 |
| Nc1nc2c(-c3ccc(S(=O)(=O)N[C@H]4CCNC4)c(S(N)(=O)=O)c3-c3nnn[nH]3)cccc2s1 [Example 60, 4-(2-amino-1,3-benzothiazol-4-yl)-N1-[(3S)-pyrrolidin-3-yl]-3-(1H-tetrazol-5-yl)benzene-1,2-disulfonamide] | 0.50 |
| C[C@H](CN)NS(=O)(=O)c1ccc(-c2cccc(N)n2)c(-c2nn[nH]n2)c1S(N)(=O)=O [Example 318, (R)—N1-(1-aminopropan-2-yl)-4-(6-aminopyridin-2-yl)-3-(2H-tetrazol-5-yl) benzene-1,2-disulfonamide] | 1.00 |
| Nc1nc2c(-c3ccc(S(N)(=O)=O)c(S(N)(=O)=O)c3-c3nn[nH]n3)cccc2s1 [Example 143, 4-(2-aminobenzo[d]thiazol-4-yl)-3-(2H-tetrazol-5-yl)benzene-1,2-disulfonamide] | 0.50 |
| Nc1ncccc1-c1ccc(S(=O)(=O)N[C@H]2C[C@@H]2N)c(S(N)(=O)=O)c1-c1nn[nH]n1 [Example 216, N1-((1S)-2-aminocyclopropyl)-4-(2-aminopyridin-3-yl)-3-(2H-tetrazol-5-yl)benzene-1,2-disulfonamide] | 4.00 |
| Nc1nc2c(-c3ccc(S(=O)(=O)NC4CCS(=O)(=O)CC4)c(S(N)(=O)=O)c3-c3nnn[nH]3)cccc2s1 [Example 14, 4-(2-amino-1,3-benzothiazol-4-yl)-N1-(1,1-dioxidotetrahydro-2H-thiopyran-4-yl)-3-(1H-tetrazol-5-yl)benzene-1,2-disulfonamide] | 1.00 |
| Nc1nc2c(-c3ccc(S(=O)(=O)N[C@H]4CCNC4)c(S(N)(=O)=O)c3-c3nn[nH]n3)cccc2[nH]1 [Example 162, 4-(2-amino-1H-benzo[d]imidazol-4-yl)-N^1-((S)-pyrrolidin-3-yl)-3-(2H-tetrazol-5-yl)benzene-1,2-disulfonamide] | 0.87 |
| NC(=O)c1ccc(-c2ccc(S(=O)(=O)N[C@@H]3CCNC3)c(S(N)(=O)=O)c2-c2nnn[nH]2)cc1 [Example 137, (R)-4′-(N-(pyrrolidin-3-yl)sulfamoyl)-3′-sulfamoyl-2′-(1H-tetrazol-5-yl)-[1,1′-biphenyl]-4-carboxamide] | 1.00 |
| Nc1nc2c(-c3ccc(S(=O)(=O)N4CC(N)C4)c(S(N)(=O)=O)c3-c3nn[nH]n3)cccc2s1 [Example 147, 6-((3-aminoazetidin-1-yl)sulfonyl)-3-(2-aminobenzo[d]thiazol-4-yl)-2-(2H-tetrazol-5-yl)benzenesulfonamide] | 1.00 |
| CC1(NS(=O)(=O)c2ccc(-c3cccc4sc(N)nc34)c(-c3nnn[nH]3)c2S(N)(=O)=O)CCCNC1 (stereo not shown) [Example 57, 4-(2-amino-1,3-benzothiazol-4-yl)-N1-(3-methylpiperidin-3-yl)-3-(1H-tetrazol-5-yl)benzene-1,2-disulfonamide] | 1.00 |
| C[C@H](CN)NS(=O)(=O)c1ccc(-c2cccc3[nH]nnc23)c(-c2nn[nH]n2)c1S(N)(=O)=O [Example 237, (R)-N^1-(1-aminopropan-2-yl)-4-(1H-benzo[d][1,2,3]triazol-4-yl)-3-(2H-tetrazol-5-yl)benzene-1,2-disulfonamide] | 0.50 |
